Assay: pKa value was determined
Format: physicochemical

**Q.** Which pKa does the source give for O=C(O)CCCCc1cc(=O)oc2c(CN3CCCC3)c(O)ccc12 here?
**A.** Its pKa is 6.7.

**Q.** Which pKa does the source give for O=C(O)CCCCc1cc(=O)oc2c(CN3CCCCC3)c(O)ccc12 here?
**A.** Its pKa is 6.6.

**Q.** Which pKa does the source give for O=C(O)CCCCc1cc(=O)oc2cc(O)ccc12 here?
**A.** Its pKa is 7.8.

**Q.** Which pKa does the source give for CCN(CC)Cc1c(O)ccc2c(CCCCC(=O)O)cc(=O)oc12 here?
**A.** The pKa was 6.6.

Source: ChEMBL document CHEMBL1130497, “Novel 7-hydroxycoumarin based fluorescent labels” (Bioorg Med Chem Lett, 1997)
